A short description of the data set: Permeability study through full thickness nail plates in modified Franz diffusion cells. The format is in vitro ADME, human. To be noted: for Total permeation of drug through nail plates: phosphate buffer pH 7.2 / 0.5% Brij 58 donor, after 48 hours. How it is done:
Example 6 examines permeability of the medicament into the nail. For this Example, ketoconazole is utilized as a model drug to perform permeability studies. The drug is dissolved in two different media for testing which functioned as the donor solution. The first is an isotonic phosphate buffer solution (pH 7.2) with 0.5% Brij 58 as a solubilizer. The second is an 80:20 methanol/water solution buffered to pH 7.2. The receptor media is the same as the donor media without dissolved drug in both cases.
A system employing 9 modified glass Franz diffusion cells is used. Full thickness nail plates are sandwiched between two polypropylene adapters with an O-ring and were mounted on the individual cells with the dorsal nail plate facing the donor compartment (receptor volume 5.2 ml; donor surface area 0.5 cm^2). The receptor fluid is maintained at 37±0.5° C. and is continuously stirred with a magnetic bar. The donor solutions are applied to the dorsal nail surface following a one hour hydration period. Samples of the receptor phase are withdrawn at predetermined time intervals (for up to 48 hours) and immediately replaced with fresh […]. Analysis of the samples is corrected for previous drug removed. The receptor and donor compartments are sealed with a sheet of aluminum foil and wrapped with parafilm. The hermeticity of the system was continuously monitored. Drug content in the receptor media is determined using high performance liquid chromatography.

The structures appear in SMILES notation.

With `CC(=O)N1CCN(c2ccc(OCC3COC(Cn4ccnc4)(c4ccc(Cl)cc4Cl)O3)cc2)CC1` (stereo not drawn) [ketoconazole], the “Greater total permeation, etched vs nonetched nail” value (80:20 methanol/water buffered to pH 7.2 donor) is about 3 fold. Moreover, the “Total permeation of drug through nail” value was 6,191±323.3 μg/cm^2 (80:20 methanol/water buffered to pH 7.2 donor, etched nail) and 2,497±237 μg/cm^2 (80:20 methanol/water buffered to pH 7.2 donor, nonetched nail). Further, the “Total permeation of drug through nail plates” value is, setting by setting: (etched nail plates) 1,873 (±155) μg/cm^2; (unetched nail plates) 446 (±51) μg/cm^2. Under “phosphate buffer/Brij 58 donor, 48 hours”, the “Difference in total permeation, etched vs unetched nail” value is recorded as about 4 fold.

Values taken from patent US7959904B2, “Delivery of medicaments to the nail” (University of Mississippi, priority 2001, dated 2011).
